Assay results from paper PMC10103840 (Frontiers in Pharmacology, 2023).
“And” between values parts separate entries of the source, which are not always exact repeats. Equal values may be shown once.

Columns and labels:
placental tissue [1] = system: placental tissue
Protocol: The stability of volumes in each reservoir ensured the integrity of the circuits and served for the detection of fetal-maternal (FM) leaks (≤4 mL/h). Throughout the perfusion additional quality control measures included a physiological pH-range (7.2 ± 0.1) and a controlled fetal perfusion pressure (≤ 70 mmHg). Samples were taken at defined timepoints over a 240 min period, immediately centrifuged, and stored in glass micro-inserts (VWR) at −80°C for bioanalytical analysis. A blood gas analysis (pH, pO2, pCO2, glucose, lactate; ABL800 FLEX) of fetal and maternal samples was performed to ensure viability and metabolic activity of placental tissue during perfusion. The production of the placental hormones beta-human chorionic gonadotropin (β-hCG) and leptin was monitored by standard ELISA to assess tissue functionality ex vivo [see ([Spiess et al., 2022a]) and references therein]. For β-hCG, flat-bottom microplates were coated with rabbit polyclonal anti-hCG antibody (Agilent Dako) at a 1:1′000 dilution and the mouse monoclonal anti-hCG (abcam; 1:5′000) served as secondary antibody. The peptide hormone hCG (Lucerna-Chem) was used as reference standard; standard final concentrations of between 100 mU/mL and 2.5 mU/mL were prepared by serial dilution in seven steps and used in each plate. The goat anti-mouse-IgG-horseradish peroxidase conjugate (abcam) antibody was used at a 1:5′000 dilution. The substrate consisted of O-phenylenediamine dihydrochloride. […] For leptin, microtiter plates were coated with mouse monoclonal anti-human leptin/OB (R&D Systems; 1:250). The second antibody was biotinylated monoclonal mouse anti-human leptin/OB (R&D Systems), used at a dilution of 1:1′000. The standard was recombinant human leptin (R&D Systems); standard final concentrations of between 2′000 pg/mL and 15.6 pg/mL were prepared by serial 1:2 dilution in seven steps and used in each plate. […] The conjugate streptavidin-horseradish peroxidase (Southern Biotechnology Associates, 1:4′000) was added and the plate incubated for 60 min. For the development, ready-to-use tetramethylbenzidine substrate solution (Thermo Fischer) was used.
Concentrations in the placental perfusion profiles (Figure 2) and system adherence tests (Figure 4) were expressed as a percentage (%) of the maternal concentration at the beginning of the perfusion, whereby the maternal concentration, measured in the maternal reservoir, was adjusted to the total volume of the full maternal circuit (maternal reservoir and dead volume of the system). The FM concentration ratio (FM ratio; Figure 3) was calculated for each timepoint and plotted against the perfusion time (min). The final recovery (%) is the sum of the amounts of study compound present in both perfusates at the end of a perfusion, and the sample removed during the experiment. Glucose consumption and lactate production are presented as the sum of changes (from the beginning to the end of perfusion) in total content (μmol) in both circuits, normalized by total perfusion time (min) and weight (g) of perfused cotyledon. […]
Multiple group comparisons were performed for the glucose consumption, lactate production, β-hCG and leptin production using the non-parametric Mann–Whitney U with GraphPad Prism (version 9.3.1 for macOS; GraphPad Software). […] Data are expressed as mean ± SD of three to four independent experiments.

[2] = System adherence test (empty perfusion chamber, maternal circuit only); format: in vitro ADME; settings: % of initial concentration, 5 μM in PM, no placental tissue, 240 min, n = 3
Protocol: The dissolution and adherence of the compounds to the perfusion equipment and to the tubing system was assessed before starting perfusions with human placentae. […] The compounds were directly dissolved in PM at a final concentration of 5 μM (100 mL reservoir) and individually tested in three independent experiments (n = 3).

[3] = 60 min, 5 μM
BeWo b30 cells = test: in vitro; settings: human, 60 min, 5 μM
Protocol: (§1) BeWo b30 choriocarcinoma cells were obtained from Dr. Tina Buerki-Thurnherr (Empa, St. Gallen, Switzerland), with permission from Dr. Alan L. Schwartz (Washington University School of Medicine, St. Louis MO, USA), and were cultivated in F-12 K Nut Mix supplemented with 10% heat inactivated FBS, antibiotics (100 U/mL penicillin, 100 µg/mL […]), and 2 mM L-glutamine (all from Gibco). The cells were cultivated in a humidified incubator at 37°C and 5% CO2 atmosphere.
(§2) BeWo b30 cells were cultured on Transwell® polycarbonate membrane inserts (24-well format; 0.4 μm pore size, 0.33 cm^2 cell growth area, 200 μL apical volume, 1′000 μL basolateral volume; Corning, Sigma-Aldrich) at a density of 60′000 cells/well. These inserts were then cultivated in a cellZscope (nanoAnalytics) at 37°C/5% CO2. Cell culture medium was replaced every 2 days up to 11 days to find the best possible conditions.
(§3) BeWo b30 cells were cultured in transparent 24-well plates under the same conditions as mentioned above and transferred to the cellZscope® at day 8 to record TER and Ccl values. After 24 h (day 9) and when a TER of 30–60 Ωcm^2 was reached and Ccl was between 0.5 and 5.0 μF/cm^2, the permeability assay was initiated by adding valerenic acid (5 μM; in HBSS with 4% BSA) to the apical compartment, while the basolateral compartment contained 1′000 μL of HBSS only. […] Samples (150 μL apical, 800 μL basolateral) were collected at each time point (0, 15, 30, 60 min; one insert per time point). After 60 min, a part of the inserts was transferred back to the cellZscope® to monitor TER and Ccl values during another 24 h. The cells grown on the other part of the inserts were quickly washed with 200 μL of cold HBSS and then lysed with 700 μL acetonitrile (100 μL apical, 600 μL basolateral) for 40 min on an orbital shaker (450 rpm, room temperature) to determine the test substance cell contents.
(§4) Apparent permeability coefficients (Papp) were calculated according to the following Eq. 1: Papp cm/s=∆Q/∆t/ACA0 (1) where ΔQ/Δt is the rate of amount transported to the receiver compartment, A is the membrane surface area (0.33 cm^2), and C A0 is the initial concentration in the apical compartment.
(§5) The clearance values were calculated according to the following Eq. 2 ([Neuhaus et al., 2008]): Clearance μL=CBnVB/CA−VB/VA∙∑CBn−1 (2) where C Bn and V B are the concentration and volume in the basolateral compartment at a specific timepoint (n), respectively; C A and VA are the concentration and volume in the apical compartment, respectively, and C Bn-1 is the total amount of substance found in the basolateral compartment up to the previous timepoint (n-1).
(§6) Recovery (mass balance) of each compound was calculated according to the following Eq. 3: Recovery %=CAfVA+CBfVB+CCfVC/CA0VA∙100 (3) where C Af , C Bf and C Cf are the final compound concentrations in apical, basolateral, and cellular compartments, respectively; C A0 is the initial concentration in the apical compartment, and V A , V B and V C are the volumes in the respective compartments.
(§7) For valerenic acid, 150 µL of the IS in MeOH were added to 50 µL of sample, and the mixture centrifuged for 20 min at 13′200 rpm/16′100 rcf at 10°C (Centrifuge 5415R, Eppendorf). An aliquot (50 µL) of the supernatant was collected and transferred into HPLC vials. Vials were centrifuged for additional 20 min prior to U(H)PLC-MS/MS analysis in full loop mode (2 µL).

in vitro [4] = settings: human
Protocol: as §1, §2, §3, §4, §5, §6, §7

in vitro [5] = settings: human, pH 7.2
[6] = Stability assay in PBS, perfusion medium and placental homogenates; format: in vitro ADME, human
Protocol: In short, after spiking the various matrices with the study compounds, samples were either processed immediately for U(H)PLC-MS/MS analysis (C0), or kept at 4°C/37°C on an orbital shaker (600 rpm) for 360 min before processing for U(H)PLC-MS/MS analysis. Samples were processed via solid phase extraction or protein precipitation prior to analysis.

[7] = Transwell control experiments across cell-free inserts; settings: data not shown
[8] = human volunteers, ref Jackson et al., 2014; cited from earlier work
BeWo cells = settings: ref Spiess et al., 2022b; cited from earlier work
placental tissue [9] = test: Histopathological evaluation of perfused placentae; design: species or system human
Protocol: Immediately after perfusion the placentae were fixed in 4% paraformaldehyde for at least 24 h. Tissue samples from representative placental tissue sections, each from perfused, non-perfused, and transitional area were prepared to perform a pathological examination. For this purpose, the tissue was embedded in paraffin, cut (∅ 2-3 µm), and stained (standard hematoxylin-eosin stain, Braun-Brenn modified Gram stain) according to the standards of routine histopathological diagnosis of the Department of Pathology and Molecular Pathology (University Hospital of Zurich). […] The blood void and width of the intervillous space and fetal blood vessels in the chorionic villi provided information about the quality of perfusion, and particular attention was paid to the presence of intravascular thrombi. General signs of degeneration, such as vacuolization of the cytotrophoblast, villous vascular endothelium viability, and formation of hydropic villous changes compared with non-perfused tissue indicated whether tissue damage might have occurred during perfusion. Microscopic effects and placental tissue damage in the perfused area were expressed in relative amounts (%) to the non-perfused tissue.

[10] = non-perfused area of same placenta

## Cc1cc(=O)n(-c2ccccc2)n1C [Antipyrine, antipyrine, reference compound]
Placental tissue [1]
  Lactate production: 0.27 µmol/g/min
  Leptin production: 2.26 ng/min
  Total glucose consumption: 0.39 µmol/g/min
  β-hCG production: 1.44 U/min
[2]
  Compound lost / adhering to the perfusion equipment: −2.2% and −2.2% ± 7.0%
Human placental barrier; human, 5 μM, pH 7.2
  Sampling (% found): 21.8 ± 1.3%
  Time to equilibrium between fetal and maternal compartment: 120 min
  Time to equilibrium between fetal and maternal concentrations (FM ratio): 90 min
Human placental barrier; human, 90 min, 5 μM, pH 7.2
  FM ratio at 90 min: 1.03
Human placental barrier; human, 120 min, 5 μM, pH 7.2
  FM ratio at 120 min: 0.98
Human placental barrier; human, 180 min, 5 μM, pH 7.2
  FM ratio at 180 min: 1.05
Human placental barrier; human, 240 min, 5 μM, pH 7.2
  FM ratio at 240 min: 0.92
[3]
  Clearance across cell-free insert: 33.5 µL
BeWo b30 cells
  Clearance across BeWo b30 cell layer: 35.5 µL
In vitro [4]
  Papp at 60 min, 5 μM: 28 ×10⁻⁶ cm/s
  recovery at 60 min, 5 μM: 81.9%
In vitro [5]
  recovery at 240 min, 5 μM: 79.2%

## Cc1cc(O)c2c(=O)c3c(O)cc(O)c4c5c(O)cc(O)c6c(=O)c7c(O)cc(C)c8c1c2c(c34)c(c78)c65 [Hypericin, hypericin]
[6]; 360 min, 4°C and 37°C
  Stability in PBS compared to PM (in words): less stable
[6]; human, tissue homogenate, 6 h
  Remaining in placental homogenate, Donor 1: 101.0%
  Remaining in placental homogenate, Donor 2: 82.7%
  Remaining in placental homogenate, Donor 3: 93.7%
Placental tissue [1]; 5 μM, 240 min perfusion, vs antipyrine control perfusions
  Effect on β-hCG and leptin production (in words): neither hyperforin, hypericin, nor valerenic acid inhibited their production in a statistically significant manner
[2]
  Compound lost / adhering to the perfusion equipment: 3.8% and 3.8% ± 13.1%
[7]
  Passage across cell-free inserts (in words): did not cross the cell-free inserts to a sufficient extent
[8]
  Plasma concentration: 2.2 ng/mL and 4.36 nM
Human placental barrier; 240 min perfusion, 5 μM maternal
  Transplacental transfer (in words): did not cross the human placental barrier
Human placental barrier; human, 240 min, 5 μM, pH 7.2
  Concentration in the maternal compartment: approximately 46 % of initial concentration
Human placental barrier; maternal perfusate after 240 min, % of amount in maternal sample at beginning
  M perfusate (% found): 36.7%
BeWo cells
  Concentration lowering the viability of placental cells: 1000 nM
  Concentration with genotoxic effects: 10000 nM
  Concentration with increased apoptosis / apoptotic effects: 1000 nM
Placental tissue [9]
  Global placental pathology: Else: CCB and N
Placental tissue [9]; after perfusion
  Extravasations into villous stroma (in words): no extravasations into villous stroma
  Ruptures of villous vessels (in words): no ruptures of villous vessels
Placental tissue [9]; [10]
  Hydropic changes in non-perfused: 5% and 0%
  Intervillous spaces without blood in non-perfused: 40% and 80%
  Vacuolated trophoblast in villi: in non-perfused too?: 0%
Placental tissue [9]; perfused and non-perfused
  Thrombi in vessels of stem villi (in words): no thrombi detectable
Placental tissue [9]; perfused area
  Intervillous spaces without blood: 90% and 95%
Placental tissue [9]; perfused area, individual experiments
  Emptiness of villous vessels: 90% and 80% and 85%
In vitro [5]
  recovery at 240 min, 5 μM: 54%
